Results taken from ChEMBL document CHEMBL4270495, “Oleanane-, ursane-, and quinone methide friedelane-type triterpenoid derivatives: Recent advances in cancer treatment” (Eur J Med Chem, 2017).
pIC50: −log10 of the molar value.

Key:
[1] = system: MCF7; test: Cytotoxicity in human MCF7 cells assessed as reduction in cell viability; assay type: functional, cell-based
[2] = system: HepG2; test: Cytotoxicity in human HepG2 cells assessed as reduction in cell viability incubated for 24 hrs by MTT assay; assay type: functional, cell-based; conditions: HepG2, 24 h
[3] = system: T-24; test: Cytotoxicity in human T24 cells assessed as reduction in cell viability incubated for 48 hrs by MTT assay; assay type: functional, cell-based; conditions: T-24, 48 h
[4] = system: HUVEC; test: Cytotoxicity in HUVEC cells assessed as reduction in cell viability incubated for 48 hrs by MTT assay; assay type: cell-based; conditions: Homo sapiens
[5] = Cytotoxicity in human SPCA2 cells assessed as reduction in cell viability incubated for 48 hrs by MTT assay; assay type: functional, cell-based; conditions: SPCA2, 48 h
[6] = system: A549; test: Cytotoxicity in human A549 cells assessed as reduction in cell viability incubated for 48 hrs by MTT assay; assay type: functional, cell-based; conditions: A549, 48 h
[7] = system: HeLa; test: Cytotoxicity in human HeLa cells assessed as reduction in cell viability incubated for 72 hrs by CCK8 assay; assay type: functional, cell-based
[8] = system: HepG2; test: Cytotoxicity in human HepG2 cells assessed as reduction in cell viability incubated for 72 hrs by CCK8 assay; assay type: functional, cell-based; conditions: HepG2, 72 h
[9] = system: PC-3; test: Cytotoxicity in human PC3 cells assessed as reduction in cell viability incubated for 72 hrs by CCK8 assay; assay type: functional, cell-based; conditions: PC-3, 72 h
[10] = system: A549; test: Cytotoxicity in human A549 cells assessed as reduction in cell viability incubated for 72 hrs by CCK8 assay; assay type: functional, cell-based; conditions: A549, 72 h
[11] = system: RAW264.7; test: Anti-inflammatory activity in mouse RAW264.7 cells assessed as inhibition of nitric oxide production; assay type: functional, cell-based
[12] = system: MCF7; test: Cytotoxicity in human MCF7 cells assessed as reduction in cell viability incubated for 24 hrs by MTT assay; assay type: functional, cell-based; conditions: MCF7, 24 h
[13] = system: A549; test: Cytotoxicity in human A549 cells assessed as reduction in cell viability incubated for 24 hrs by MTT assay; assay type: functional, cell-based; conditions: A549, 24 h
[14] = system: MCF7; test: Cytotoxicity in human MCF7 cells assessed as reduction in cell viability incubated for 72 hrs by MTT assay; assay type: functional, cell-based; conditions: MCF7, 72 h
[15] = system: HT-29; test: Cytotoxicity in human HT-29 cells assessed as reduction in cell viability incubated for 72 hrs by MTT assay; assay type: functional, cell-based; conditions: HT-29, 72 h
[16] = system: HeLa; test: Cytotoxicity in human HeLa cells assessed as reduction in cell viability incubated for 72 hrs by MTT assay; assay type: functional, cell-based
[17] = system: HL60/ADR; test: Cytotoxicity in human HL60/ADR cells assessed as reduction in cell viability incubated for 24 hrs by MTT assay; assay type: functional, cell-based
[18] = system: MDA-MB-231; test: Cytotoxicity in human MDA-MB-231 cells assessed as reduction in cell viability incubated for 24 hrs by MTT assay; assay type: functional, cell-based; conditions: MDA-MB-231, 24 h
[19] = system: HL-60; test: Cytotoxicity in human HL60 cells assessed as reduction in cell viability incubated for 24 hrs by MTT assay; assay type: functional, cell-based; conditions: HL-60, 24 h
[20] = system: SGC-7901; test: Cytotoxicity in human SGC7901 cells assessed as reduction in cell viability incubated for 48 hrs by MTT assay; assay type: functional, cell-based; conditions: SGC-7901, 48 h
[21] = system: HepG2; test: Cytotoxicity in human HepG2 cells assessed as reduction in cell viability incubated for 48 hrs by MTT assay; assay type: functional, cell-based; conditions: HepG2, 48 h
[22] = system: HeLa; test: Cytotoxicity in human HeLa cells assessed as reduction in cell viability incubated for 48 hrs by MTT assay; assay type: functional, cell-based
[23] = system: NCI-H446; test: Cytotoxicity in human NCI-H446 cells assessed as reduction in cell viability incubated for 24 hrs by MTT assay; assay type: functional, cell-based; conditions: NCI-H446, 24 h
[24] = system: A-375; test: Cytotoxicity in human A375 cells assessed as reduction in cell viability incubated for 24 hrs by MTT assay; assay type: functional, cell-based; conditions: A-375, 24 h

For C[C@H]1[C@H](C)CC[C@]2(C(N)=O)CC[C@]3(C)C(=CC[C@@H]4[C@@]5(C)CC[C@H](OC(=O)CCC(=O)O)C(C)(C)[C@@H]5CC[C@]43C)[C@H]12, the pIC50 [1] was 4.35 and the pIC50 [2] was 5.04.
Work on O=c1[nH]cc(F)c(=O)[nH]1 [FLUOROURACIL] yielded a pIC50 [3] of 4.40, a pIC50 [4] of 4.25 and a pIC50 [5] of 4.35. The pIC50 [6] was 4.46.
Compound COC(=O)C1CCCN1C(=O)[C@]12CC[C@@H](C)[C@H](C)[C@H]1C1=CC[C@@H]3[C@@]4(C)C[C@@H](O)[C@H](O)[C@@](C)(CO)[C@@H]4CC[C@@]3(C)[C@]1(C)CC2 (stereo not given in full) has a pIC50 [7] of 4.67.
Compound CC(=O)OC[C@@]1(C)[C@@H]2CC[C@]3(C)[C@H](CC=C4[C@@H]5[C@@H](C)[C@H](C)CC[C@]5(C(=O)O)CC[C@]43C)[C@@]2(C)C[C@@H](OC(C)=O)[C@@H]1OC(C)=O has a pIC50 [8] of 4.99, a pIC50 [9] of 4.76 and a pIC50 [10] of 4.68. For the same compound, the pIC50 [7] was 4.62.
Work on C[C@H]1[C@H](C)CC[C@]2(C#N)CC[C@]3(C)C(=CC[C@@H]4[C@@]5(C)C=C(C#N)C(=O)C(C)(C)[C@@H]5CC[C@]43C)[C@H]12 yielded a pIC50 [11] of 5.15 to 6.00.
For C[C@@H]1O[C@@H](O[C@H]2CC[C@@]3(C)[C@@H](CC[C@]4(C)[C@@H]3CC=C3[C@H]5CC(C)(C)CC[C@]5(C(=O)O)CC[C@]34C)[C@]2(C)CO)[C@H](O)[C@H](O)[C@H]1O[C@@H]1O[C@H](CO)[C@@H](O)[C@H](O)[C@H]1O, the pIC50 [12] was 4.38 and the pIC50 [13] was 4.75.
In the case of CCCC(=O)OC[C@]1(C)C=C(C=O)[C@@]2(C)[C@H]1CC[C@]1(C)[C@@H]2C(=O)C=C2[C@@H]3[C@@H](C)[C@H](C)CC[C@]3(C(=O)OC)CC[C@]21C, the pIC50 [14] was 6.06, the pIC50 [15] was 6.11 and the pIC50 [16] was 6.31.
C[C@H]1[C@H](C)CC[C@]2(C(N)=O)CC[C@]3(C)C(=CC[C@@H]4[C@@]5(C)CC[C@H](OC(=O)c6ccccc6)C(C)(C)[C@@H]5CC[C@]43C)[C@H]12 gave a pIC50 [1] of 4.35 and a pIC50 [2] of 5.10.
With COC(=O)[C@]12CCC(C)(C)C[C@H]1C1=CC(=O)[C@@H]3[C@@]4(C)CCC(=O)C(C)(C)[C@@H]4CC[C@@]3(C)[C@]1(C)CC2 the pIC50 [17] was 5.12, the pIC50 [18] was 4.48 and the pIC50 [19] was 5.55.
CCOP(=O)(OCC)C(NC(=O)[C@]12CC[C@@H](C)[C@H](C)[C@H]1C1=CC[C@@H]3[C@@]4(C)C[C@@H](OC(C)=O)[C@H](OC(C)=O)[C@@](C)(COC(C)=O)[C@@H]4CC[C@@]3(C)[C@]1(C)CC2)c1cccc2ccccc12 (stereo not given in full) gave a pIC50 [3] of 4.36, a pIC50 [4] of less than 4.00 and a pIC50 [5] of 4.34. For the same compound, the pIC50 [6] was 4.26.
In the case of CC(=O)O[C@H]1CC[C@]2(C)[C@H]3CC=C4[C@@H]5[C@@H](C)[C@H](C)CC[C@]5(C(=O)NCCCCC(C)N)CC[C@@]4(C)[C@]3(C)CC[C@H]2C1(C)C (stereo not given in full), the pIC50 [1] was 5.32 and the pIC50 [2] was 5.30.
For C[C@@H]1O[C@@H](O[C@@H]2[C@@H](O)[C@H](O[C@H]3CC[C@@]4(C)[C@@H](CC[C@]5(C)[C@@H]4CC=C4[C@H]6CC(C)(C)CC[C@]6(C(=O)O)CC[C@]45C)[C@]3(C)CO)OC[C@@H]2O[C@H]2O[C@H](CO)[C@@H](O)[C@H](O)[C@@H]2O)[C@H](O)[C@@H](O)[C@H]1O, the pIC50 [12] was less than 4.30 and the pIC50 [13] was 4.71.
Compound COc1ccc(/C=N/NC(=O)COC(=O)[C@]23CC[C@@H](C)[C@@](C)(O)[C@H]2C2=CC(=O)[C@@H]4[C@@]5(C)CC[C@H](O)[C@](C)(CO)[C@@H]5CC[C@@]4(C)[C@]2(C)CC3)cc1 has a pIC50 [20] of 4.95, a pIC50 [21] of 5.38 and a pIC50 [22] of 5.07.
With CCOP(=O)(OCC)C(NC(=O)[C@]12CC[C@@H](C)[C@H](C)[C@H]1C1=CC[C@@H]3[C@@]4(C)C[C@@H](OC(C)=O)[C@H](OC(C)=O)[C@@](C)(COC(C)=O)[C@@H]4CC[C@@]3(C)[C@]1(C)CC2)c1ccc2ccccc2c1 (stereo not given in full) the pIC50 [3] was 4.31, the pIC50 [4] was less than 4.00 and the pIC50 [5] was 4.31. It also gave a pIC50 [6] of 4.33.
Compound C[C@@H]1CC[C@]2(C(=O)NC(Cc3c[nH]c4ccccc34)C(=O)O)CC[C@]3(C)C(=CC(=O)[C@@H]4[C@@]5(C)CC[C@H](O)[C@](C)(CO)[C@@H]5CC[C@]43C)[C@@H]2[C@]1(C)O (stereo not given in full) has a pIC50 [23] of 4.95, a pIC50 [24] of 5.10 and a pIC50 [2] of 5.21.
